Measured values published in US4820694A, “Modifications of 3-O-demethylmycinose in macrocin and lactenocin” (priority 1986, dated 1989).
Converted amounts (≈) assume the structure as drawn. Like-named read-outs stand apart in the source and are kept apart here.

Assays:
[1] = system: Staphylococcus aureus S13E; test: microbe, parasite or virus in culture; assay type: cell-based
Experimental: (§1) The MIC's in Table III were determined by standard agar-dilution assays. The MIC's in Table IV were obtained using conventional brothdilution microtiter tests.

[2] = system: Streptococcus pneumoniae Park I; test: microbe, parasite or virus in culture; assay type: cell-based
Experimental: as §1

[3] = system: Mycoplasma gallisepticum 15E; test: broth-dilution microtiter MIC test; assay type: cell-based; conditions: broth-dilution microtiter
Experimental: as §1

[4] = system: Pasteurella hemolytica 23C; test: broth-dilution microtiter MIC test; assay type: cell-based; conditions: broth-dilution microtiter
Experimental: as §1

[5] = system: Pasteurella multocida 68C; test: broth-dilution microtiter MIC test; assay type: cell-based; conditions: broth-dilution microtiter
Experimental: as §1

[6] = system: Bordetella bronchiseptica; test: broth-dilution microtiter MIC test; assay type: cell-based; conditions: broth-dilution microtiter
Experimental: as §1

[7] = system: Mycoplasma hyopneumoniae S5972; test: broth-dilution microtiter MIC test; assay type: cell-based; conditions: broth-dilution microtiter
Experimental: as §1

[8] = system: Mycoplasma gallisepticum 36H; test: broth-dilution microtiter MIC test; assay type: cell-based; conditions: broth-dilution microtiter
Experimental: as §1

Mycoplasma synoviae 40A = test: broth-dilution microtiter MIC test; assay type: cell-based; conditions: broth-dilution microtiter
Experimental: as §1

[9] = system: Pasteurella multocida 40G; test: broth-dilution microtiter MIC test; assay type: cell-based; conditions: broth-dilution microtiter
Experimental: as §1

[10] = system: Pasteurella multocida 17E; test: broth-dilution microtiter MIC test; assay type: cell-based; conditions: broth-dilution microtiter; Bovine isolate
Experimental: as §1

[11] = system: Pasteurella hemolytica 22C; test: broth-dilution microtiter MIC test; assay type: cell-based; conditions: broth-dilution microtiter
Experimental: as §1

[12] = system: Pasteurella hemolytica 41D; test: broth-dilution microtiter MIC test; assay type: cell-based; conditions: broth-dilution microtiter
Experimental: as §1

[13] = system: Pasteurella multocida 22A; test: broth-dilution microtiter MIC test; assay type: cell-based; conditions: broth-dilution microtiter
Experimental: as §1

[14] = system: Staphylococcus aureus 19C; test: broth-dilution microtiter MIC test; assay type: cell-based; conditions: broth-dilution microtiter
Experimental: as §1

Mycoplasma hyorhinis 29E = test: broth-dilution microtiter MIC test; assay type: cell-based; conditions: broth-dilution microtiter
Experimental: as §1

[15] = system: Mycoplasma gallisepticum 29C; test: broth-dilution microtiter MIC test; assay type: cell-based; conditions: broth-dilution microtiter
Experimental: as §1

Streptococcus sp. 19F = test: broth-dilution microtiter MIC test; assay type: cell-based; conditions: broth-dilution microtiter
Experimental: as §1

[16] = system: Pasteurella multocida 60A; test: broth-dilution microtiter MIC test; assay type: cell-based; conditions: broth-dilution microtiter; Avian isolate
Experimental: as §1

[17] = system: Streptococcus Group D 9960; test: standard agar-dilution MIC assay; assay type: cell-based
Experimental: as §1

[18] = system: Klebsiella pneumoniae X68; test: standard agar-dilution MIC assay; assay type: cell-based; conditions: agar-dilution
Experimental: as §1

[19] = system: Staphylococcus aureus V41; test: standard agar-dilution MIC assay; assay type: cell-based
Experimental: as §1

[20] = system: Staphylococcus aureus X400; test: standard agar-dilution MIC assay; assay type: cell-based
Experimental: as §1

[21] = system: Pseudomonas aeruginosa X239; test: standard agar-dilution MIC assay; assay type: cell-based; conditions: agar-dilution
Experimental: as §1

[22] = system: Staphylococcus aureus X1.1; test: standard agar-dilution MIC assay; assay type: cell-based
Experimental: as §1

[23] = system: Staphylococcus epidermidis 222; test: standard agar-dilution MIC assay; assay type: cell-based
Experimental: as §1

[24] = system: Staphylococcus epidermidis EPI1; test: standard agar-dilution MIC assay; assay type: cell-based
Experimental: as §1

[25] = system: Streptococcus Group D X66; test: standard agar-dilution MIC assay; assay type: cell-based
Experimental: as §1

[26] = system: Haemophilus influenzae C.L.; test: standard agar-dilution MIC assay; assay type: cell-based; conditions: agar-dilution, Ampicillin-sensitive strain
Experimental: as §1

[27] = system: Haemophilus influenzae 76; test: standard agar-dilution MIC assay; assay type: cell-based; conditions: agar-dilution, Ampicillin-resistant strain
Experimental: as §1

[28] = system: Streptococcus pyogenes C203; test: standard agar-dilution MIC assay; assay type: cell-based
Experimental: as §1

[29] = system: Streptococcus pyogenes C203; test: protection of mice experimentally infected with S. pyogenes C203; assay type: in vivo; conditions: mice, mg/kg × 2, doses given 1 and 4 hours postinfection, read-out: ED50
In short: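 Mice experimentally infected with S. pyogenes C203 got two doses of test compound, at 1 and 4 h postinfection. The ED50 is the dose in mg/kg (per dose, given twice) that protected 50% of the animals.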

[30] = system: Streptococcus Group D 2041; test: standard agar-dilution MIC assay; assay type: cell-based; conditions: GROUPD2041
Experimental: as §1

Escherichia coli EC14 = test: standard agar-dilution MIC assay; assay type: cell-based; conditions: agar-dilution, read-out: MIC
Experimental: as §1

[31] = Klebsiella pneumoniae, X68, read-out: MIC
[32] = Pseudomonas aeruginosa, X239, read-out: MIC
[33] = Staphylococcus epidermidis, 222
[34] = Staphylococcus epidermidis, EPI1
[35] = Haemophilus influenzae, read-out: MIC
[36] = Haemophilus influenzae, 76, read-out: MIC

CC[C@H]1OC(=O)C[C@@H](O)[C@H](C)[C@@H](O[C@@H]2O[C@H](C)[C@@H](O)[C@H](N(C)C)[C@H]2O)[C@@H](CC=O)C[C@@H](C)C(=O)/C=C/C(C)=C/[C@@H]1CO[C@@H]1O[C@H](C)[C@@H](OC(=O)COc2ccccc2)[C@@H](O)[C@H]1OC [Compound 34, 4"-O-Phenoxyacetyl-lactenocin]
MIC ([1]; agar-dilution): 1 µg/mL (≈ 1.12 µM)
MIC ([2]; agar-dilution): 0.12 µg/mL (≈ 0.135 µM)
MIC [3]: 25 µg/mL (≈ 28 µM)
MIC [4]: 25 µg/mL (≈ 28 µM)
MIC [5]: 12.5 µg/mL (≈ 14 µM)
MIC [6]: 50 µg/mL (≈ 56.1 µM)
MIC [7]: 0.097 µg/mL (≈ 0.109 µM)
MIC [8]: 12.5 µg/mL (≈ 14 µM)
MIC (Mycoplasma synoviae 40A): 0.097 µg/mL (≈ 0.109 µM)
MIC [9]: 12.5 µg/mL (≈ 14 µM)
MIC [10]: 6.25 µg/mL (≈ 7.01 µM)
MIC [11]: 25 µg/mL (≈ 28 µM)
MIC [12]: 25 µg/mL (≈ 28 µM)
MIC [13]: 12.5 µg/mL (≈ 14 µM)
MIC [14]: 0.78 µg/mL (≈ 0.874 µM)
MIC (Mycoplasma hyorhinis 29E): 6.25 µg/mL (≈ 7.01 µM)
MIC [15]: ≤ 0.048 µg/mL
MIC (Streptococcus sp. 19F): 1.56 µg/mL (≈ 1.75 µM)
MIC [16]: 12.5 µg/mL (≈ 14 µM)
MIC [17]: 1 µg/mL (≈ 1.12 µM)
MIC [18]: -- (Not active at 128 mcg/mL, the highest level tested)
MIC ([19]; agar-dilution, Penicillin-resistant strain): 1 µg/mL (≈ 1.12 µM)
MIC ([20]; agar-dilution, Methicillin-resistant strain): 1 µg/mL (≈ 1.12 µM)
MIC [21]: -- (Not active at 128 mcg/mL, the highest level tested)
MIC ([22]; agar-dilution): 1 µg/mL (≈ 1.12 µM)
MIC ([23]; agar-dilution): 0.5 µg/mL (≈ 0.561 µM)
MIC ([24]; agar-dilution): 1 µg/mL (≈ 1.12 µM)
MIC [25]: 1 µg/mL (≈ 1.12 µM)
MIC [26]: 4 µg/mL (≈ 4.48 µM)
MIC [27]: 4 µg/mL (≈ 4.48 µM)
MIC ([28]; agar-dilution): 0.12 µg/mL (≈ 0.135 µM)

CCC1OC(=O)CC(O)C(C)C(OC2OC(C)C(O)C(N(C)C)C2O)C(CCOc2ccccc2)CC(C)C(=O)C=CC(C)=CC1COC1OC(C)C2OC(=S)OC2C1OC (stereo not drawn) [Compound 59, 20-DH-20-O-Phenyl-lactenocin 3",4"-thiocarbonate]
ED50 ([29]; C203, Oral): 54 mg/kg
ED50 ([29]; C203, sc, Subcutaneous): 10 mg/kg
MIC ([1]; Staphylococcus aureus, S13E): 1 µg/mL (≈ 1.14 µM)
MIC ([2]; Streptococcus pneumoniae): 2 µg/mL (≈ 2.28 µM)
MIC [18, 31]: > 128 µg/mL
MIC [30]: 32 µg/mL (≈ 36.4 µM)
MIC ([19]; Staphylococcus aureus, V41): 1 µg/mL (≈ 1.14 µM)
MIC ([20]; Staphylococcus aureus, X400): 1 µg/mL (≈ 1.14 µM)
MIC [21, 32]: > 128 µg/mL
MIC ([22]; Staphylococcus aureus, X1.1): 1 µg/mL (≈ 1.14 µM)
MIC [23, 33]: 0.5 µg/mL (≈ 0.569 µM)
MIC [24, 34]: 2 µg/mL (≈ 2.28 µM)
MIC ([25]; read-out: MIC): 16 µg/mL (≈ 18.2 µM)
MIC [26, 35]: 128 µg/mL (≈ 146 µM)
MIC [27, 36]: 128 µg/mL (≈ 146 µM)
MIC (Escherichia coli EC14): > 128 µg/mL
MIC ([28]; Streptococcus pyogenes, C203): 2 µg/mL (≈ 2.28 µM)

CCC1OC(=O)CC(O)C(C)C(OC2OC(C)C(OC(C)=O)C(N(C)C)C2OC(C)=O)C(CCOc2ccccc2)CC(C)C(=O)C=CC(C)=CC1COC1OC(C)C=CC1OC (stereo not drawn) [Compound 42, 2',4'-Di-O-acetyl-3",4"-di(dehydrodeoxy)-20-DH-20-O-phenyl-lactenocin]
MIC ([1]; Staphylococcus aureus, S13E): 4 µg/mL (≈ 4.51 µM)
MIC ([2]; Streptococcus pneumoniae): 1 µg/mL (≈ 1.13 µM)
MIC [18, 31]: > 128 µg/mL
MIC [30]: 4 µg/mL (≈ 4.51 µM)
MIC ([19]; Staphylococcus aureus, V41): 0.5 µg/mL (≈ 0.564 µM)
MIC ([20]; Staphylococcus aureus, X400): 0.5 µg/mL (≈ 0.564 µM)
MIC [21, 32]: > 128 µg/mL
MIC ([22]; Staphylococcus aureus, X1.1): 1 µg/mL (≈ 1.13 µM)
MIC [23, 33]: 0.5 µg/mL (≈ 0.564 µM)
MIC [24, 34]: 1 µg/mL (≈ 1.13 µM)
MIC ([25]; read-out: MIC): 4 µg/mL (≈ 4.51 µM)
MIC [26, 35]: > 128 µg/mL
MIC [27, 36]: > 128 µg/mL
MIC (Escherichia coli EC14): > 128 µg/mL
MIC ([28]; Streptococcus pyogenes, C203): 1 µg/mL (≈ 1.13 µM)
